Four compounds from ChEMBL document CHEMBL5154808, “Novel β-Hairpin Antimicrobial Peptides Containing the β-Turn Sequence of -RRRF- Having High Cell Selectivity and Low Incidence of Drug Resistance” (J Med Chem, 2022) can be followed below.

A short description of data set [1]: Acute toxicity in Kunming mouse assessed as pulmonary congestion at 25 mg/kg, ip by H and E staining based analysis. It is filed as organism-based. The following applies: in vivo.
Data set [2] concerns Cell membrane. Kind of data set: Induction of cytoplasmic membrane depolarization in Staphylococcus aureus ATCC 25923 assessed as increase in fluorescence intensity at 4 times MIC measured after 1 min by DiSC3-5 dye based fluorescence method. The class given is subcellular.
Data set [3] relates to Escherichia coli. Kind of data set: Antimicrobial activity against Escherichia coli ATCC 25922 assessed as breakage of cell membrane measured after 4 hrs by SEM analysis. The class given is functional, organism-based.
Data set [4] deals with Cell membrane. Kind of data set: Induction of inner membrane permeabilization in Escherichia coli ML-35 ATCC 43587 at 1 to 4 times MIC by ONPG based assay. The conditions noted are these: DDE = dose-dependent effect.
For data set [5], the system named is Cell membrane. Kind of data set: Induction of cytoplasmic membrane depolarization in […] assessed as increase in fluorescence intensity at 1 to 4 times MIC measured after 1 min by DiSC3-5 dye based fluorescence method. It is filed as subcellular.
In data set [6] the test system is Lipopolysaccharide (LPS). Put plainly: Binding affinity to LPS (unknown origin) assessed as reduction in bactericidal activity against Escherichia coli ATCC 25922 at 2 times MIC incubated for 2 hrs in presence of 32 ug/ml of LPS by competitive binding assay.
The subject of data set [7] is Cell membrane. Put plainly: Induction of cytoplasmic membrane depolarization in Pseudomonas aeruginosa ATCC 27853 assessed as increase in fluorescence intensity at 1 to 4 times MIC measured after 1 min by DiSC3-5 dye based fluorescence method. It is filed as subcellular.
Data set [8] relates to Staphylococcus aureus. Put plainly: Induction of drug resistance in Staphylococcus aureus ATCC 25923 assessed as increase in MIC after 10 passages by CLSI protocol based broth microdilution method. The class given is functional.
The test system of data set [9] is Staphylococcus epidermidis. Kind of data set: Antimicrobial activity against Staphylococcus epidermidis ATCC 12228 assessed as reduction of bacterial growth incubated for 18 hrs by CLSI protocol based broth microdilution method. The class given is functional.
Data set [10] is described as follows: Acute toxicity in ip dosed Kunming mouse assessed as lethal dose. The conditions noted are these: in vivo. It is filed as organism-based.
Data set [11] in a line: Acute toxicity in Kunming mouse assessed as increased interalveolar space at 25 mg/kg, ip by H and E staining based analysis. The class given is organism-based. The following applies: in vivo.
The nature of data set [12]: Cytotoxicity against human HK-2 cells assessed as reduction in cell viability incubated for 1 hr by resazurin based microplate reader method. It is filed as toxicity. On the technique in general: Alamar Blue is a resazurin reagent that responds to reducing activity.
The nature of data set [13]: Acute toxicity in Kunming mouse assessed as swollen kidney cells at 25 mg/kg, ip by H and E staining based analysis. The class given is organism-based. The conditions noted are these: in vivo.
The nature of data set [14]: Acute toxicity in Kunming mouse assessed as distortion of alveolar morphology at 25 mg/kg, ip by H and E staining based analysis. The conditions noted are these: in vivo. It is filed as organism-based.
The subject of data set [15] is Klebsiella pneumoniae. Kind of data set: Antimicrobial activity against Klebsiella pneumoniae ATCC 700603 assessed as reduction of bacterial growth incubated for 18 hrs by CLSI protocol based broth microdilution method. It is filed as functional.
A short description of data set [16]: Acute toxicity in Kunming mouse assessed as respiratory depression in lungs by measuring mortality at 19 to 30 mg/kg, ip within 1 hr. The following applies: in vivo, dose 19-30 mg/kg. It is filed as organism-based.
Data set [17] has as its system Staphylococcus aureus. Kind of data set: Synergistic antibacterial activity against rifampicin-resistant Staphylococcus aureus ATCC 25923 assessed as fractional inhibitory concentration index incubated for 18 hrs in presence of rifampicin by checker board assay. It is filed as functional.
Data set [18] deals with Staphylococcus aureus. Kind of data set: Antimicrobial activity against Staphylococcus aureus ATCC 25923 assessed as reduction of bacterial growth incubated for 18 hrs by CLSI protocol based broth microdilution method. The class given is functional. For orientation: Dilution methods test growth across graded concentrations, often in twofold steps.
The test system of data set [19] is Erythrocyte. Put plainly: Hemolytic activity in mouse red blood cells assessed as release of hemoglobin incubated for 1 hr by microplate reader method. The class given is toxicity, cell-based.
Data set [20] deals with Staphylococcus aureus. Kind of data set: Bactericidal activity against Staphylococcus aureus ATCC 25923 assessed as time required to kill bacteria at 2 times MIC by time-killing assay. The class given is functional.
Data set [21] relates to Bacillus subtilis. Kind of data set: Antimicrobial activity against Bacillus subtilis ATCC 23857 assessed as reduction of bacterial growth incubated for 18 hrs by CLSI protocol based broth microdilution method. The class given is functional.
Data set [22] concerns Pseudomonas aeruginosa. Put plainly: Antimicrobial activity against Pseudomonas aeruginosa ATCC 27853 assessed as reduction of bacterial growth incubated for 18 hrs by CLSI protocol based broth microdilution method. It is filed as functional.
Data set [23] relates to Escherichia coli. Kind of data set: Antimicrobial activity against Escherichia coli ATCC 25922 assessed as reduction of bacterial growth incubated for 18 hrs by CLSI protocol based broth microdilution method. The class given is functional.
The subject of data set [24] is Escherichia coli. Put plainly: Synergistic antibacterial activity against kanamycin-resisitant Escherichia coli ATCC 25922 assessed as fractional inhibitory concentration index incubated for 18 hrs in presence of kanamycin by checker board assay. It is filed as functional.
The test system of data set [25] is Escherichia coli. Put plainly: Synergistic antibacterial activity against meropenem-resistant Escherichia coli ATCC 25922 assessed as fractional inhibitory concentration index incubated for 18 hrs in presence of meropenem by checker board assay. It is filed as functional.
Data set [26] relates to Escherichia coli. Kind of data set: Antimicrobial activity against Escherichia coli ATCC 25922 assessed as swollen cell membrane measured after 0.5 to 2 hrs by SEM analysis. The class given is functional, organism-based. The conditions noted are these: time 0.5-2 hrs.
Data set [27] deals with Enterococcus faecalis. Kind of data set: Antimicrobial activity against Enterococcus faecalis ATCC 29212 assessed as reduction of bacterial growth incubated for 18 hrs by CLSI protocol based broth microdilution method. It is filed as functional.
The subject of data set [28] is Staphylococcus aureus. Put plainly: Antibacterial activity against Staphylococcus aureus ATCC 25923 infected in BALB/c mouse assessed as reduction in bacterial load in lung at 5 to 10 mg/kg, ip measured after 4 to 12 hrs (reference value: 5.6 x 10^6 CFU/g). The conditions noted are these: dose 5-10 mg/kg, time 4-12 hrs. The class given is functional.
In data set [29] the test system is Escherichia coli. Put plainly: Synergistic antibacterial activity against rifampicin-resistant Escherichia coli ATCC 25922 assessed as fractional inhibitory concentration index incubated for 18 hrs in presence of rifampicin by checker board assay. It is filed as functional.
The subject of data set [30] is Escherichia coli. Put plainly: Induction of drug resistance in Escherichia coli ATCC 25922 assessed as increase in MIC measured after 20 passages by CLSI protocol based broth microdilution method. The class given is functional. The conditions noted are these: time 18.0 hrs.
The subject of data set [31] is Escherichia coli. Put plainly: Antimicrobial activity against kanamycin-resistant Escherichia coli ATCC 25922. The class given is functional.
Data set [32] has as its system Staphylococcus aureus. Kind of data set: Antimicrobial activity against kanamycin-resistant Staphylococcus aureus ATCC 25923. It is filed as functional.
Data set [33] relates to Staphylococcus aureus. Kind of data set: Induction of drug resistance in Staphylococcus aureus ATCC 25923 assessed as fold increase in MIC after 5 passages by CLSI protocol based broth microdilution method. It is filed as functional. The following applies: time 18.0 hrs.

Structures are written as SMILES. Converted amounts (≈) assume the structure as drawn. The source made the active and inactive calls. The calls are words filed in the database; no cut-off is given here. Where a SMILES comes first, the peptide text is derived from it. Bridges are numbered along the chain shown (N, C = ends). [ ]: non-standard residue; d: D form. The star is where a group is joined. X1 = CC[C@H](C)CCCCC(=O)*; Dab = NCC[C@H](N)C(=O)O Some results are limits rather than exact numbers.

Consider `CC[C@H](C)CCCCC(=O)N[C@@H](CCN)C(=O)N[C@H](C(=O)N[C@@H](CCN)C(=O)N[C@H]1CCNC(=O)[C@H]([C@@H](C)O)NC(=O)[C@H](CCN)NC(=O)[C@H](CCN)NC(=O)[C@H](CC(C)C)NC(=O)[C@@H](Cc2ccccc2)NC(=O)[C@H](CCN)NC1=O)[C@@H](C)O` (X1-[Dab]T[Dab][Dab][Dab][dF]L[Dab][Dab]T; lactam 4-C), for which the Activity result was “Toxic” in data set [1]; “Dde” in data set [4]; “Toxic” in [11]; “Toxic” in data set [13]; “Toxic” in [14]; “Toxic” in data set [16]. In data set [28], the Activity was determined as 0 CFU/g. Further, the outcome in data set [2], in [3], in data set [5], in data set [6], in data set [7] and in data set [8] was Active. Further, the outcome in [26] was Active. Further, the MIC (usually the lowest concentration found to suppress growth) in data set [9] was 16 µM (≈ 19.3 µg/mL); in data set [15] it was 4 µM (≈ 4.81 µg/mL); in [18] it was 16 µM (≈ 19.3 µg/mL); in data set [21] it was 4 µM (≈ 4.81 µg/mL); in [22] it was 2 µM (≈ 2.41 µg/mL); in data set [23], 4 µM (≈ 4.81 µg/mL). For the same compound, the MIC in data set [27] came to 128 µM (≈ 154 µg/mL). Also, in [10], the LD50 (in general, the dose at which mortality reaches 50%) turned out to be 25.5 mg/kg. Also, the CC50 (usually the concentration giving 50% cytotoxicity) at 1 h in data set [12] is above 128 µM. In addition, the “fractional inhibitory concentration index (FICI)” value in data set [17] amounted to 0.75; in [24] it was 0.25; in [25] it was 1.25; in [29] it was 0.3125. For the same compound, the HC10 in [19] is above 256 µM. In data set [20], the Time turned out to be 6 h.
For the compound `NC[C@H]1O[C@H](O[C@H]2[C@H](O)[C@@H](O[C@H]3O[C@H](CO)[C@@H](O)[C@H](N)[C@H]3O)[C@H](N)C[C@@H]2N)[C@H](O)[C@@H](O)[C@@H]1O` [KANAMYCIN], the result in data set [30] was Active. Further, the MIC in data set [31] is 1020 µM (≈ 496 µg/mL); in data set [9], above 128 µM; in data set [32], 1020 µM (≈ 496 µg/mL); in [15], 64 µM (≈ 31 µg/mL); in data set [18], below 1 µM; in data set [21], below 1 µM. The MIC in [22] was above 128 µM; in data set [23], 4 µM (≈ 1.94 µg/mL); in data set [27], 16 µM (≈ 7.75 µg/mL). In data set [33], the fold change (FC) stood at 64.
In the case of `C[C@@H](O)[C@H]1C(=O)N2C(C(=O)O)=C(S[C@@H]3CN[C@H](C(=O)N(C)C)C3)[C@H](C)[C@H]12` [MEROPENEM], the result in data set [30] and in data set [8] was Active. Moreover, the MIC in data set [9] is below 1 µM; in [15] it was below 1 µM; in data set [18] it was below 1 µM; in [21] it was below 1 µM; in [22], 2 µM (≈ 0.767 µg/mL); in [23], below 1 µM. Further, the MIC in data set [27] was determined as 16 µM (≈ 6.14 µg/mL).
In the case of `CO[C@H]1/C=C/O[C@@]2(C)Oc3c(C)c(O)c4c(O)c(c(/C=N/N5CCN(C)CC5)c(O)c4c3C2=O)NC(=O)/C(C)=C\C=C\[C@H](C)[C@H](O)[C@@H](C)[C@@H](O)[C@@H](C)[C@H](OC(C)=O)[C@@H]1C` [RIFAMPIN], the outcome in [30] was Active. In addition, the MIC was below 1 µM in [9]; 32 µM (≈ 26.3 µg/mL) in [15]; below 1 µM in data set [18]; below 1 µM in data set [21]; 32 µM (≈ 26.3 µg/mL) in data set [22]; 4 µM (≈ 3.29 µg/mL) in [23]. The MIC in [27] was below 1 µM. Also, in data set [33], the fold change (FC) came to 64.
